Experiments:
Type in all cases: cell-based
pY397-HS1 = experiment: Phosphoprotein screen in human whole blood with CBL inhibitor at 10 uM: HS1; details: 1 hr 37° C., human whole blood 8 donors, anti-CD3/CD28 + crosslinker 60 minutes
Procedure: (§1) To identify proximal biomarkers of CBL-B inhibition in immune cells, a panel of phosphorylated proteins were screened in human whole blood incubated with CBL-B inhibitor and concomitant anti-CD3 and anti-CD28 antibodies. The effect of CBL-B inhibition was assessed across multiple cellular signaling networks.
(§2) Human heparinized whole blood from 8 donors was received after an overnight shipment at 4° C. The blood was plated, treated with CBL inhibitor at 10 uM and incubated at 37° C. for 60 minutes. After incubation, the cells were stimulated with anti-CD3/CD28 followed by a cross-linking antibody (30 μg of goat anti-mouse IgG (H+L) antibody (Invitrogen)). After 60 minutes, the cells were fixed, and stained using surface markers for T cells (CD3^+CD4^+& CD3^+CD8^+) and analyzed by flow cytometry for target phosphorylation of the following markers: pY180/pY511-ITK, pY397-HS1, pY759-PLCg2, pY783-PLCg1, pY525/pY526/pY348-SYK & pY319-Zap70.
(§3) Fold change of each biomarker was calculated with the following example equation: […]
(§4) Whole blood from eight human donors was collected in sodium heparin anti-coagulant treated with 10 μM of Compound 23 for 1 hr at 37° C. […] Fold change of % phosphorylation normalized to DMSO was quantitated in T cells (CD8^+) using flow cytometry is provided in FIGS. 6A-6B.

pY525/pY526/pY348-SYK = experiment: Phosphoprotein screen in human whole blood with CBL inhibitor at 10 uM: SYK; details: 1 hr 37° C., human whole blood 8 donors, anti-CD3/CD28 + crosslinker 60 minutes
Procedure: as §1, §2, §3, §4

phosphorylated ZAP70 = experiment: Phosphorylated ZAP70 in human CD8+ T cells from whole blood in vitro (flow cytometry); details: T-cell, whole blood from six human donors, 2 hrs 37° C., anti-CD3/anti-CD28 + crosslinker 60 minutes, read-out: Average mean EC50±standard deviation, phosphorylated ZAP70
Procedure: (§5) To assess these candidate clinical proximal biomarkers of Cbl-b inhibition on T cells, pharmacodynamic analysis was performed. Whole blood was obtained from human donors and incubated with increasing concentrations of Compound 23. The response to Cbl-b inhibition on phosphorylated HS1, PLCγ2, and ZAP70 was measured in CD8^+ T cells using flow cytometry. This technique is highly quantitative and can measure multiple phosphorylation markers in different cell populations within the same sample.
(§6) For pharmacodynamic analysis, whole blood was obtained from six human donors (BioIVT) and used for flow cytometry assays to evaluate phosphorylated biomarkers HS1, PLCγ2, and ZAP70 in CD8^+ T cells.
(§7) Whole blood was collected in a collection tube coated with sodium heparin. […]
(§8) Stained cells were run on an Attune NxT Acoustic Focusing Flow Cytometer (Thermo Fisher, cat. No. A29004), and data was analyzed using FlowJo (v10.6.1) and GraphPad Prism (v8.00) software. Single lymphocytes were gated for CD8^+ cells (CD45^+/CD8^+) cells, and population frequencies were calculated for each population. The data is quantified by the percent positive. […] As protein becomes phosphorylated the fluorescence increases resulting in a larger fraction of the cells entering that gate. Each population was evaluated for % positive pY759-PLCγ2, pY397-HS1 levels, pY319/Syk (Y352)-ZAP70 levels.

phosphorylated HS1 = experiment: Phosphorylated HS1 in human CD8+ T cells from whole blood in vitro (flow cytometry)
Procedure: as §5, §6, §7
as §8, with “levels. […]” for “levels.”

Compound: C[C@H]1CCCN(Cc2cc3c(c(C(F)(F)F)c2)CN(c2cccc([C@]4(c5nncn5C)C[C@@H](C)C4)c2)C3=O)C1 [Compound 23]
- increased phosphorylation of HS1 compared to DMSO control (pY397-HS1): 3-4 fold
- increased phosphorylation of SYK compared to DMSO control (pY525/pY526/pY348-SYK): 2-3 fold
- EC50 (phosphorylated ZAP70): 120 ± 8.97 nM
- EC50 (phosphorylated HS1; T-cell, whole blood from six human donors, 2 hrs 37° C., anti-CD3/anti-CD28 + crosslinker 60 minutes, CD8+ T cells, read-out: Average mean EC50±standard deviation, phosphorylated HS1): 89 ± 7.91 nM
- phosphorylated HS1 in human whole blood (FIG. 7) (phosphorylated HS1; human donors n=6, two hours at 37° C., anti-CD3 and anti-CD28 co-stimulation, crosslinked): concentration-dependent increase

— US20230355599A1, “BIOMARKERS FOR CBL, AND COMPOSITIONS AND METHODS FOR THEIR USE” (NURIX THERAPEUTICS, INC., priority 2022, published 2023)
